Laboratory results published in publication PMC10179972, “New Hybrid Tetrahydropyrrolo[3,2,1-ij]quinolin-1-ylidene-2-thioxothiazolidin-4-ones as New Inhibitors of Factor Xa and Factor XIa: Design, Synthesis, and In Silico and Experimental Evaluation” (Molecules, 2023).

How the values were obtained:
factor XIa [1] = molecular target: T1, factor XIa (Homo sapiens, UniProt P03951); assay: Inhibition of factor XIa, kinetics of hydrolysis of chromogenic substrate S2366; type: biochemical; conditions: 30 μM compound; factor XIa 0.8 nmol/L, S2366 200 μmol/L, pH 8.0; read-out: Percent Inhibition at 30 μM, XIa
Experimental: Compounds 12, 14 and 16 were evaluated for their anticoagulant activity against factors Xa and Xia, and the results are presented in Table 1. For the best Xa and XIa inhibitors, additional measurements were performed to determine the IC50 values. We measured the kinetics of the hydrolysis of the specific substrates S2765 or S2366 by factors Xa and XIa, respectively, in the buffer solution and in the presence of various concentrations of compounds.
(§1) A specific low-molecular-weight chromogenic substrate, S2765 (Z-D-Arg-Gly-Arg-pNA·2HCl), was used in the case of factor Xa, while the substrate S2366 (pyroGlu-Pro-ArgpNA·HCl) (both substrates from Chromogenix, USA) was used for factor XIa.
(§2) A buffer containing 140 mM NaCl, 20 mM HEPES, and 0.1% PEG 6000 (pH 8.0) was placed in the wells of a 96-well plate, followed by the addition of factor Xa (final concentration, 2.5 nmol·L^–1) or XIa (final concentration 0.8 nmol·L^–1), the substrate S2765 (final concentration, 200 μmol·L^–1) or S2366 (final concentration, 200 μmol·L^–1), and a solution of the test compound in DMSO (final concentration, 30 μmol·L^–1; the DMSO content in the well was no more than 2%). The kinetics of the formation of p-nitroaniline were measured using a THERMOmax Microplate Reader (Molecular Devices Corporation, USA) using the absorption of light with a wavelength of 405 nm. The initial rate of substrate degradation was determined from the initial slope of the 4-nitroaniline-formation curve. The rate of substrate degradation by the enzyme in the presence of the inhibitor was expressed as a percentage relative to the rate of substrate degradation in the absence of the inhibitor. The data obtained were processed using GraphPad Prism and OriginPro 8 software.

factor Xa [2] = molecular target: T2, factor Xa (Homo sapiens, UniProt P00742); assay: Inhibition of factor Xa, kinetics of hydrolysis of chromogenic substrate S2765; type: biochemical; conditions: 30 μM compound; factor Xa 2.5 nmol/L, S2765 200 μmol/L, pH 8.0; read-out: Percent Inhibition at 30 μM, Xa
T2 construct: followed by the addition of factor Xa (final concentration, 2.5 nmol·L^–1)
Experimental: We measured the kinetics of the hydrolysis of the specific substrates S2765 or S2366 by factors Xa and XIa, respectively, in the buffer solution and in the presence of various concentrations of compounds.
as §1
as §2, with “The kinetics of the formation of p-nitroaniline were measured using a THERMOmax Microplate Reader (Molecular Devices Corporation, USA) using the absorption of light with a wavelength of 405 nm.” left out

factor XIa [3] = molecular target: T1, factor XIa; parameters: method as in earlier work; conditions: known actives used in validation of docking protocol, ref [1]-[6] of Table S2, column Ligand ID, cited from earlier work
factor Xa [4] = molecular target: T2, factor Xa; conditions: cited from earlier work

T1 sequence (P03951 388-625 limits assumed): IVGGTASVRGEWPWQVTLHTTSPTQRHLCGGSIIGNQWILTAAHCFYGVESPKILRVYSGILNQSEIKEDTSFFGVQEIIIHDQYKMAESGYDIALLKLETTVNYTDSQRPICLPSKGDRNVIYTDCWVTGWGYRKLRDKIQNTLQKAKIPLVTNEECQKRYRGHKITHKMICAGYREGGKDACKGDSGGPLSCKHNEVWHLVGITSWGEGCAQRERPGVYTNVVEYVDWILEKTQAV
T1 sequence (P03951 19-387 partner limits assumed): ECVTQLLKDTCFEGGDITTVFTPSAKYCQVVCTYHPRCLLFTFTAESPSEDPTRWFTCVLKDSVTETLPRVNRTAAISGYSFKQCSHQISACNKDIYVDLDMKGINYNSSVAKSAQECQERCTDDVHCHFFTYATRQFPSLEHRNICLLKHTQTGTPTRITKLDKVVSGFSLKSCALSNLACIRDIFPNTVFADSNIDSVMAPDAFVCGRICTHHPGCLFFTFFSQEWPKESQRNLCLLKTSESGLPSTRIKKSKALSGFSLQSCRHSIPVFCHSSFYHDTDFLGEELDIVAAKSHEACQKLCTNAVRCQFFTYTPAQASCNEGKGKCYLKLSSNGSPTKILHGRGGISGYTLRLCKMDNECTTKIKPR
T2 sequence (P00742 235-488 limits assumed): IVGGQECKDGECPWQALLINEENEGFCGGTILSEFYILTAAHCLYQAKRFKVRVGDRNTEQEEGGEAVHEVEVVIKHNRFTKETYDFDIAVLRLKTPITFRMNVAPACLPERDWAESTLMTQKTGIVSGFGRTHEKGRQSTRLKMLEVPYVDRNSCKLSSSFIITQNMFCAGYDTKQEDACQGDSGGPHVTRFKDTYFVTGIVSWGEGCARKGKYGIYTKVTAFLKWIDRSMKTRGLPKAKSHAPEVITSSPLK
T2 sequence (P00742 41-179 partner limits assumed): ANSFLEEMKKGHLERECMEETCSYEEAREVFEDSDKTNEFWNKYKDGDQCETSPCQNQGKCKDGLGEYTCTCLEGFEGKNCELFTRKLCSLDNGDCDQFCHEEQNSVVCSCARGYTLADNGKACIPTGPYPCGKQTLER

inhibition at 30 µM (factor XIa [1]) | inhibition at 30 µM (factor Xa [2]) | Compound | other results
5% | 31% | Cc1cc2c3c(c1)C(C)CC(C)(C)N3C(=O)/C2=C1\NC(=S)NC1=O (stereo not shown) [16b, (Z)-4,4,6,8-Tetramethyl-1-(5-oxo-2-thioxoimidazolidin-4-ylidene)-5,6-dihydro-4H-pyrrolo[3,2,1-ij]quinolin-2(1H)-one] | –
57% | 45% | CC1(c2ccccc2)CC(C)(C)N2C(=O)/C(=C3\NC(=S)NC3=O)c3cccc1c32 (stereo not shown) [16c, (Z)-4,4,6-Trimethyl-1-(5-oxo-2-thioxoimidazolidin-4-ylidene)-6-phenyl-5,6-dihydro-4H-pyrrolo[3,2,1-ij]quinolin-2(1H)-one] | –
2% | 17% | CC1(c2ccccc2)CC(C)(C)N2C(=O)/C(=C3\NC(=S)NC3=O)c3cc(F)cc1c32 (stereo not shown) [16d, (Z)-8-Fluoro-4,4,6-trimethyl-1-(5-oxo-2-thioxoimidazolidin-4-ylidene)-6-phenyl-5,6-dihydro-4H-pyrrolo[3,2,1-ij]quinolin-2(1H)-one] | –
86% | 59% | Cc1cc2c3c(c1)C(C)(c1ccc(Cl)cc1)CC(C)(C)N3C(=O)/C2=C1\NC(=S)NC1=O (stereo not shown) [16e, (Z)-6-(4-Chlorophenyl)-4,4,6,8-tetramethyl-1-(5-oxo-2-thioxoimidazolidin-4-ylidene)-5,6-dihydro-4H-pyrrolo[3,2,1-ij]quinolin-2(1H)-one] | –
– | – | CC(C)CC(=O)Nc1cc(-c2ccc(C(N)=O)cc2C(=O)O)cc([C@@H]2C[C@](C)(c3ccccc3)c3cc(C(=N)N)ccc3N2)c1 [BMS-654457] | Ki (factor XIa [3]; read-out: Ki, factor XIa (Table S2, values in brackets)): 0.2 nM
– | – | CS(=O)(=O)c1ccccc1-c1ccc(N2CC[C@H](NS(=O)(=O)CCc3ccc(Cl)s3)C2=O)c(F)c1 [GSV] | IC50 (factor Xa [4]; known actives of crystal complexes used in validation of docking protocol, no reference given, read-out: IC50, factor Xa (Table S2)): 0.2 nM
– | – | Cc1cc(=O)[nH]c2ccc(Cl)cc12 [MVN] | IC50 (factor XIa [3]): > 1.1 nM

Compound | inhibition at 30 µM (factor XIa [1]) | inhibition at 30 µM (factor Xa [2]) | other results
O=C(NC[C@H]1CN(c2ccc(N3CCOCC3=O)cc2)C(=O)O1)c1ccc(Cl)s1 [Rivaroxaban, reference compound] | 8% | – | factor-Xa inhibitor potency in words (factor Xa [4]): subnanomolar
